Assay results published in US20050043262A1, “Novel specific inhibitor of the cyclin kinase inhibitor p21Waf1/Cip1 and methods of using the inhibitor” (priority 2000, published 2005).

Tests used:
[1] = test system: bovine VSM cells; assay: PDGF-BB-stimulated DNA synthesis in bovine VSM cells; format: cell-based; details: bovine VSM cell line, various concentrations
From the text: Cell culture, DNA synthesis, and proliferation assays: Cultures of both A10 and A7r5 rat aortic VSM cells were obtained from American Type Culture Collection (Rockville Md.). Bovine aortic smooth muscle cells were supplied by Martha O'Donnell (O'Donnell and Owen, 1986 Proc Natl. Acad. Sci.US.A., 83, p. 6132-6136). All of the cell lines were maintained as described (Weiss et al., 1998 Am. J. Physiol., 274, p. C1521-C1529) and were used between passages 15 and 25. The cells were growth-arrested by placing them in serum-free quiescence medium, exposed to growth factors as indicated, and [^3H]thymidine incorporation assessed as previously described (Weiss and Nuccitelli, 1992a J. Biol. Chem., 267, p. 5608-5613). Cell proliferation was assessed by counting of adherent cells on 4 representative fields under 100× magnification in each of 3 wells per experimental condition.
Antisense techniques were employed to examine the dependence of G1-phase progression on p21^Waf1/Cip1 in the VSM cell lines (Crooke, 1993 Antisense research and applications. Boca Raton, CRC.). […] DNA synthesis was assessed by [^3H]-thymidine incorporation and is expressed as mean ± s.e.m. of three wells per data point. […] After 18 hours of PDGF incubation, the cells were counted by examining representative fields at 100× magnification. The average number of cells in 4 random fields in each well was determined.

[2] = test system: p27^Kip1; assay: p27Kip1 protein level by Western blot in A10 VSM cells; format: cell-based, rat; details: PMA for 4 hours
Procedure: Western blots: Cells were grown to confluence in 6 cm culture dishes and serum deprived. After transfection and or treatment with appropriate agonist, the cells were washed with phosphate-buffered saline and lysed in lysis buffer and the supernatant was Western blotted as described (Weiss et al., 1998 Am. J. Physiol., 274, p. C1521-C1529).
To check for specificity of protein inhibition by the antisense p21^Waf1/Cip1 oligodeoxynucleotide (SEQ. ID NO.: 1), protein levels of p21^Waf1/Cip1 and p27^Kip1 after transfection with antisense p21^Waf1/Cip1 oligodeoxynucleotide (SEQ. ID NO.:1) were examined. In these experiments the ability of antisense oligodeoxynucleotides (SEQ. ID NO.:1) to inhibit maximally stimulated CKI expression (see FIG. 4) was assessed. The cells were stimulated with PMA for 4 hours at various times after overnight serum starvation.
At the times indicated after the overnight incubation (in hours), the medium was changed to quiescence medium and the cells were stimulated with PMA for 4 hours to show maximal p21^Waf1/Cip1 expression (FIG. 6a). The lysates were immunoblotted with (a) p21^Waf1/Cip1 or p27^Kip1 antibody or (b) α-actin antibody. […]

[3] = test system: VSM cells; assay: Apoptosis by Hoechst 33258 staining in VSM cells; format: cell-based, rat; details: 24 hours after transfection
Procedure: FIG. 20A-D show how the antisense oligonucleotide to p21 induces VSM cell apoptosis, as described in Example III, infra. VSM cells were grown on glass cover slips and transfected with (A,B) random sequence control oligonucleotide to p21 or (C,D) antisense oligonucleotide. 24 hours later, the cells were fixed and stained in situ with Hoechst 33258. Representative microscopic fields were photographed under (A,C) visual or (B,D) UV light at 40×.
Apoptosis assays: Cells were grown on collagen-coated coverslips, and transfected as stated above. 16-24 hours after transfection, cells were exposed to 12 Gy dose of γ-irradiation or 0.5 μM wortmannin. 24 hours later, cells were fixed in 3.7% formaldehyde (diluted in PBS) for 10 minutes. The cells were rinsed with cold PBS and permeabilized using 0.1% Triton X-100 (diluted in deionized water) for 5 minutes. Rinsed again with PBS, the cells on the coverslips were submerged in Hoechst Staining solution (3.0 μl in 37.5 ml deionized water) for 5 minutes. Cells were given a final three rinses with cold PBS before being mounted in polyvinyl alcohol mounting medium. Cell nuclei were visualized using a ZEISS WL Microscope and photographed under 40×.
As another measure of apoptosis, transfected cells fixed and stained with Hoechst 33258 were examined.

[4] = test system: MAPK; assay: MAPK level (immunoblot) in ODN-transfected breast cancer cells; format: cell-based, human; details: ODN-transfected cells compared with controls
Procedure: Due to the high levels of p21 in these two human breast cancer cell lines, it was reasoned that, in a manner similar to their effect in VSM cells (Weiss, R. H., Joo, A., and Randour, C., J. Biol. Chem., 275: 10285-10290, 2000), antisense ODNs to p21 may result in increased apoptosis and/or cell cycle arrest. […] T47D and MCF7 cells were lipofected with either antisense p21 ODN (200 or 400 nM), the control ODN at the same concentrations, or lipofectin alone (no DNA). MCF7 and T47D cells were grown to confluence, serum starved for 24 hours, and lipofected with antisense p21 or control ODN or lipofectin only. cont refers to nontransfected cells. The cells were subsequently serum stimulated for another 24 hours. A and B, the cells were lysed, and equal protein quantities (20 μg) were electrophoresed and immunoblotted with p21 antibody. The same lysate was immunoblotted with MAPK antibody as a loading control. Density of p21 and MAPK bands was determined and reported as a ratio. C, the cells were transfected as described in A, fixed, subjected to immunohistochemistry with p21 antibody as described in “Immunohistochemistry” in Example VI, and examined under visible light at X400. Control cells (FIG. 30, cont) were not transfected. […] There was no effect of lipofectin alone when compared with no transfection (control).

Substance | PDGF-stimulated DNA synthesis [1] | p27^Kip1 protein [2] | apoptotic changes (Hoechst 33258) [3] | MAPK levels [4]
5′-GACATCACCAGGATCGGACAT-3′ | a similar effect | slight decrease | extensive apoptotic changes | 
5′-ATC-CCC-AGC-CGG-TTC-TGA-CAT-3′ (antisense ATCCCCAGCCGGTTCTGACAT; listed as DNA, chemistry not fully specified) [antisense p21 ODN] |  |  |  | lack of modulation
